From ChEMBL document CHEMBL3085703, “Synthetic cannabinoid quinones: preparation, in vitro antiproliferative effects and in vivo prostate antitumor activity” (Eur J Med Chem, 2013)
Activity calls are given as the source filed them. No cut-off for these calls is given here.

Legend:
Cannabinoid receptor 2 = Cannabinoid receptor 2 (Homo sapiens, UniProt P34972); test: Displacement of [3H]CP55940 from human cannabinoid CB2 receptor expressed in HEK293 EBNA cells after 90 mins by liquid scintillation counting; format: cell-based
Cannabinoid receptor 1 = Cannabinoid receptor 1 (Homo sapiens, UniProt P21554); test: Displacement of [3H]CP55940 from human cannabinoid CB1 receptor expressed in HEK293 EBNA cells after 90 mins by liquid scintillation counting; format: cell-based
PC-3 [1] = test: Antitumor activity against human PC3 cells xenografted in BALB/c OlaHsd-Foxn1nu mouse assessed as tumor growth inhibition at 2 mg/kg, ip qd for 15 days; format: functional; conditions: PC-3, ip, 360 h, route intraperitoneal, read-out: TGI
LNCaP [2] = test: Antitumor activity against human LNCAP cells xenografted in BALB/c OlaHsd-Foxn1nu mouse assessed as tumor growth inhibition at 2 mg/kg, ip qd for 15 days; format: functional, organism-based; design: dose 2 mg/kg
LNCaP [3] = test: Antiproliferative activity against human LNCAP cells after 48 hrs by MTT assay in presence of PPARgamma antagonist GW9662; format: functional, cell-based
LNCaP [4] = test: Antiproliferative activity against human LNCAP cells after 48 hrs by MTT assay in presence of antioxidant N-acetylcysteine; format: functional, cell-based
LNCaP [5] = test: Antiproliferative activity against human LNCAP cells after 48 hrs by MTT assay in presence of CB2 antagonist SR144528; format: functional, cell-based
LNCaP [6] = test: Antiproliferative activity against human LNCAP cells after 48 hrs by MTT assay in presence of CB1 antagonist SR141716; format: functional, cell-based
PC-3 [7] = test: Induction of apoptosis in human PC3 cells assessed as early apoptotic cells at IC50 after 24 hrs using annexin V-FITC/PI staining by flow cytometric analysis (reference value: 1.51%); format: functional
PC-3 [8] = test: Induction of apoptosis in human PC3 cells assessed as late apoptotic cells at IC50 after 24 hrs using annexin V-FITC/PI staining by flow cytometric analysis (reference value: 4.45%); format: functional
PC-3 [9] = test: Induction of apoptosis in human PC3 cells assessed as viable cells at IC50 after 24 hrs using annexin V-FITC/PI staining by flow cytometric analysis (reference value: 9.96%); format: functional
LNCaP [10] = test: Induction of apoptosis in human LNCAP cells assessed as early apoptotic cells at IC50 after 24 hrs using annexin V-FITC/PI staining by flow cytometric analysis (reference value: 1.24%); format: functional
LNCaP [11] = test: Induction of apoptosis in human LNCAP cells assessed as late apoptotic cells at IC50 after 24 hrs using annexin V-FITC/PI staining by flow cytometric analysis (reference value: 2.96%); format: functional
LNCaP [12] = test: Induction of apoptosis in human LNCAP cells assessed as viable cells at IC50 after 24 hrs using annexin V-FITC/PI staining by flow cytometric analysis (reference value: 12.33%); format: functional
PC-3 [13] = test: Cell cycle arrest in human PC3 cells assessed as accumulation at G2 phase at IC50 after 24 hrs by flow cytometry analysis (reference value: 22.90%); format: functional
PC-3 [14] = test: Cell cycle arrest in human PC3 cells assessed as accumulation at S phase at IC50 after 24 hrs by flow cytometry analysis (reference value: 6.97%); format: functional
PC-3 [15] = test: Cell cycle arrest in human PC3 cells assessed as accumulation at G1/G0 phase at IC50 after 24 hrs by flow cytometry analysis (reference value: 70%); format: functional
PC-3 [16] = test: Cell cycle arrest in human PC3 cells assessed as accumulation at sub-G0 phase at IC50 after 24 hrs by flow cytometry analysis (reference value: 0.12%); format: functional
LNCaP [17] = test: Cell cycle arrest in human LNCAP cells assessed as accumulation at G2 phase at IC50 after 24 hrs by flow cytometry analysis (reference value: 5.62%); format: functional
LNCaP [18] = test: Cell cycle arrest in human LNCAP cells assessed as accumulation at S phase at IC50 after 24 hrs by flow cytometry analysis (reference value: 3.90%); format: functional
LNCaP [19] = test: Cell cycle arrest in human LNCAP cells assessed as accumulation at G1/G0 phase at IC50 after 24 hrs by flow cytometry analysis (reference value: 91.30%); format: functional
LNCaP [20] = test: Cell cycle arrest in human LNCAP cells assessed as accumulation at sub-G0 phase at IC50 after 24 hrs by flow cytometry analysis (reference value: 0.18%); format: functional
PC-3 [21] = test: Antiproliferative activity against human PC3 cells after 48 hrs by MTT assay; format: functional, cell-based; conditions: PC-3, 48 h
LNCaP [22] = test: Antiproliferative activity against human LNCAP cells after 48 hrs by MTT assay; format: functional, cell-based
HepG2 = test: Antiproliferative activity against human HepG2 cells after 48 hrs by MTT assay; format: functional, cell-based; conditions: HepG2, 48 h

Cannabinoid receptor 1, sequence (P21554 whole entry): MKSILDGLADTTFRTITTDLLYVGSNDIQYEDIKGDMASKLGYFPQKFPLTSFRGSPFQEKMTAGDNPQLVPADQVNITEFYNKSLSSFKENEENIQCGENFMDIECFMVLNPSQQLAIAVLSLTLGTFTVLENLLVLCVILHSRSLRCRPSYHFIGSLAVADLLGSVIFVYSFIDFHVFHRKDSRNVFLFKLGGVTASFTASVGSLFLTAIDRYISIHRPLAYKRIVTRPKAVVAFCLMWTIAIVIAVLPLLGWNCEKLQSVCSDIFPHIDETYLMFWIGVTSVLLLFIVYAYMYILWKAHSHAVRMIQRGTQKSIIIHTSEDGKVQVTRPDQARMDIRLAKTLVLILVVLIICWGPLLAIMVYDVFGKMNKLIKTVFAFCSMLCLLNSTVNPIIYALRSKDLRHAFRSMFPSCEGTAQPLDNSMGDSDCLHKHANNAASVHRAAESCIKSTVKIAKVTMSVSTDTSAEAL
Cannabinoid receptor 2, sequence (P34972 whole entry): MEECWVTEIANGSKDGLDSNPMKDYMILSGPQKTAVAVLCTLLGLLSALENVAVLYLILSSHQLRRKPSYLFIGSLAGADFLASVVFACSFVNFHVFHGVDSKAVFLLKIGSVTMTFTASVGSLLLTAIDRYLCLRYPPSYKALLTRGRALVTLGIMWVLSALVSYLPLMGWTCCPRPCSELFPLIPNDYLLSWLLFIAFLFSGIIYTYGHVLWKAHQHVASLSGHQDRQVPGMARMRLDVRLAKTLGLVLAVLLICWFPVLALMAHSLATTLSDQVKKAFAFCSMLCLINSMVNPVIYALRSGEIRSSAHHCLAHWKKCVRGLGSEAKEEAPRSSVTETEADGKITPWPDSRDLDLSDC

Compound `CCCCCCC(C)(C)C1=CC(=O)C2=C(OC(C)(C)c3cn(C)nc32)C1=O` has a Ki (Cannabinoid receptor 2) of 0.672 µM and a Ki (Cannabinoid receptor 1) of 14.2 µM.

`CCCCCCC(C)(C)C1=CC(=O)C2=C(OC(C)(C)c3cn(CC)nc32)C1=O` showed a Ki (Cannabinoid receptor 2) of 3.66 µM and a Ki (Cannabinoid receptor 1) of 8.52 µM.

With `CCCCCCC(C)(C)C1=CC(=O)C2=C(OC(C)(C)c3c[nH]nc32)C1=O` the inhibition in vivo at 2 mg/kg (PC-3 [1]) was 40%, the TGI (LNCaP [2]) was “Active” and the Activity (LNCaP [3]) was “inactive”. The Activity (LNCaP [4]) was “inactive”, the Activity (LNCaP [5]) was “Active” and the Activity (LNCaP [6]) was “inactive”. It also gave an Activity (PC-3 [7]) of 3.98%, an Activity (PC-3 [8]) of 6.91% and an Activity (PC-3 [9]) of 5.97%. The Activity (LNCaP [10]) was 5.86%, the Activity (LNCaP [11]) was 9.59% and the Activity (LNCaP [12]) was 12.52%. For the same compound, the Activity (PC-3 [13]) was 30.24%, the Activity (PC-3 [14]) was 10.09% and the Activity (PC-3 [15]) was 58.68%. For the same compound, the Activity (PC-3 [16]) was 2.3%, the Activity (LNCaP [17]) was 9.24% and the Activity (LNCaP [18]) was 7.09%. It also gave an Activity (LNCaP [19]) of 74.68%, an Activity (LNCaP [20]) of 8.9% and an IC50 (PC-3 [21]) of 15 µM. The IC50 (LNCaP [22]) was 15 µM, the IC50 (HepG2) was 30 µM and the Ki (Cannabinoid receptor 2) was 0.134 µM. For the same compound, the Ki (Cannabinoid receptor 1) was 0.324 µM.
